Literature values, collected in US20020099506A1, “Methods and apparatus for predicting ligand binding interactions” (priority 2000, published 2002).
Entries after “also recorded” stand apart in the source; their conditions may differ.

System: histdyl t-RNA synthetase
Conditions: not given

SMILES | recognition by the enzyme (experimental observations)
N[C@@H](Cc1c[nH]cn1)C(=O)O [histidine] | the only ligand recognized by this enzyme

System: olfactory receptor S25 (OR S25)
Conditions: data of Malnic et al.; 24 odorants of 4-9 carbon atoms

SMILES | experimental odor response of S25
CCCCCCCO [heptanol] | responds positively; also recorded: elicited measurable responses
CCCCCCO [hexanol] | responds positively; also recorded: elicited measurable responses

System: olfactory receptor S18
Conditions: according to Malnic et al.

SMILES | experimental response of S18
O=C(O)CCCCCCCBr [8-bromo-octanoic acid] | responds experimentally
CCCCCCC(=O)O [heptanoic acid] | responds experimentally
CCCCCCCCC(=O)O [nonanoic acid] | responds experimentally
CCCCCCCCCO [nonanol] | responds experimentally
CCCCCCCC(=O)O [octanoic acid] | responds experimentally
CCCCCCCCO [octanol] | responds experimentally
